Measured values as given in patent US20260209260A1, “VECTORIZED NHC IRIDIUM(III) COMPLEXES AND USE THEREOF IN PHOTODYNAMIC THERAPY AND/OR DIAGNOSTIC” (CENTRE NATIONAL DE LA RECHERCHE SCIENTIFIQUE, priority 2022, published 2026).
Values joined by “and” are separate entries in the source; they are usually repeats but may differ in a detail not shown here. Equal values may be shown once. Read-outs that look alike come from different tables or passages of the source. Marks after values point to notes of the source that are not given here.

What was measured:
[1] = Lipophilicity: octanol-water partition coefficient, shake-flask method
In short: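 Octanol and water mutually pre-saturated for 24 h; compound ([…] stock in aqueous phase) partitioned against equal volume n-octanol, mixed 15 min, phases separated by centrifugation.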

[2] = UV/Vis absorption spectra; assay type: physicochemical; conditions: room temperature, air-saturated CH2Cl2 or CH2Cl2/MeOH (1:1), 50 μM; ε in brackets, sh = shoulder
Procedure: UV/Vis absorption spectra were recorded at RT on solutions contained in quartz cuvettes (optical pathlength 1 cm, Hellma®) with a PerkinElmer® UV/VIS/NIR spectrophotometer Lambda 950 and a PerkinElmer® detector UV/VIS/NIR Accessory 2D Detector Module.

[3] = Luminescence emission spectra and quantum yield; assay type: physicochemical; conditions: for λem: CH2Cl2, room temperature, λexc 365 nm or 470 nm; for ΦP emission phosphorescence quantum yield: room temperature, reference POPOP in hexane or rhodamine B in ethanol
In short: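 Spectrofluorometric fluorescence/phosphorescence emission spectra of the iridium(III) complexes recorded in CH2Cl2 at room temperature. Quantum yields by the Demas–Crosby relative method on solutions at RT, from integrated emission band areas versus a reference standard of known yield, corrected for solvent refractive index.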

[4] = Emission lifetime measurement; assay type: physicochemical
In short: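 Emission lifetimes measured by time-correlated single-photon counting (0.5 ns time resolution), excitation from a D2 lamp and a 405 nm pulsed diode laser. Estimated error 5% on lifetime.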

[5] = tested on: MC3T3 osteoblast cells (non-tumor); assay: Cell viability assay (MTT), dark and blue light; assay type: cell-based, Murine; conditions: for Photosensitizing index (PI) MC3T3: dark vs blue light 458 nm; for Photosensitizing index (PI): MC3T3, dark vs blue light
In short: (§1)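 Viability determined by MTT assay (A570) after 72 h treatment in 0.1% DMSO, with or without a 10 min irradiation at 8 h. Data from at least three independent experiments run in triplicate.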

[6] = tested on: NIH-3T3 fibroblast cells (non-tumor); assay: Cell viability assay (MTT), dark and blue light; assay type: cell-based, Murine; conditions: for Photosensitizing index (PI) NIH-3T3: dark vs blue light 458 nm; for Photosensitizing index (PI): NIH-3T3, dark vs blue light
In short: as §1

[7] = 8 h in the dark, blue light 458 nm 10 min, then dark up to 72 h, read-out: GI50 MC3T3 Blue
[8] = in the dark, 72 h, read-out: GI50 MC3T3 Dark
[9] = 8 h in the dark, blue light 458 nm 10 min, then dark up to 72 h, read-out: GI50 NIH-3T3 Blue
[10] = in the dark, 72 h, read-out: GI50 NIH-3T3 Dark
[11] = n-octanol/water, shake-flask, mean of at least three determinations
[12] = MC3T3, blue light, read-out: GI50
[13] = NIH-3T3, blue light, read-out: GI50

Row | SMILES | Log P [1] | λmax (nm) ε (M^−1 · cm^−1) [2] | λem [3] | ΦP emission phosphorescence quantum yield [3] [%] | τ1 emission lifetime [4] [ns] | GI50 [5, 7] [µM] | Photosensitizing index (PI) MC3T3 [5] | GI50 [5, 8] | GI50 [6, 9] | Photosensitizing index (PI) NIH-3T3 [6] | GI50 [6, 10] [µM] | Log P [1, 11] | GI50 [5, 12] [µM] | Photosensitizing index (PI) [5] | GI50 ([5]; MC3T3, dark, read-out: GI50) | GI50 [6, 13] [µM] | Photosensitizing index (PI) [6] | GI50 ([6]; NIH-3T3, dark, read-out: GI50) [µM]
1 | COC(=O)c1ccc2[n+](c1)[Ir-3]13([c]4ccccc4-2)([c]2ccccc2-c2ccc(C(=O)OC)c[n+]21)[c]1n(CCCNC(=O)CCCC[C@@H]2SC[C@@H]4NC(=O)N[C@@H]42)cc[n+]1-c1cccc[n+]13.F[P-](F)(F)(F)(F)F [I-e] | 0.25 ± 0.04 | 310 (sh) (19500), 365 (sh) (4690), 432 (4155) nm (M^−1 · cm^−1) | 511-550 nm | 3.7 | 224 | 41.1 | 1.4 | 58.8 µM and 56.8 µM | 135 µM | >1.9 | > 250 |  |  |  |  |  |  | 
2 | F[P-](F)(F)(F)(F)F.O=C(CCCC[C@@H]1SC[C@@H]2NC(=O)N[C@@H]21)NCCCn1cc[n+]2[c]1[Ir-3]13([c]4ccccc4-c4ccc5ccccc5[n+]41)([c]1ccccc1-c1ccc4ccccc4[n+]13)[n+]1ccccc1-2 [I-g] | 1.26 ± 0.04 | 336 (19000), 437 (4600) nm (M^−1 · cm^−1) | 593-652 nm | <0.1 | 203 | 31.4 | 1.8 | 85.2 µM and 55.2 µM | 81.7 µM and 61.7 µM | 1.8 | 110 |  |  |  |  |  |  | 
3 | F[P-](F)(F)(F)(F)F.O=C(CCCC[C@@H]1SC[C@@H]2NC(=O)N[C@@H]21)NCCCn1cc[n+]2[c]1[Ir-3]13([c]4ccccc4-c4c5ccccc5cc[n+]41)([c]1ccccc1-c1c4ccccc4cc[n+]13)[n+]1ccccc1-2 [I-h] |  | 337 (sh) (12520), 352 (sh) (11890), 380 (sh) (8100), 436 (4855) nm (M^−1 · cm^−1) |  | 3.0 | 202 | 5 | 8.4 | 42.2 µM | 10.4 µM | 9.7 | 101 | 0.87 ± 0.02 |  |  |  |  |  | 
4 | F[P-](F)(F)(F)(F)F.O=C(CCCC[C@@H]1SC[C@@H]2NC(=O)N[C@@H]21)NCCCn1cc[n+]2[c]1[Ir-3]13([c]4ccccc4-c4sc5ccccc5[n+]41)([c]1ccccc1-c1sc4ccccc4[n+]13)[n+]1ccccc1-2 [I-k] | 0.87 ± 0.03 | 321 (25835), 372 (sh) (7480), 406 (6130) nm (M^−1 · cm^−1) |  | 7.0 | 322 | 19.2 | 1.3 | 25.8 µM | 31.1 µM | 2.4 | 75.8 |  |  |  |  |  |  | 
5 | F[P-](F)(F)(F)(F)F.O=C(O)CC[C@H](NC(=O)N[C@@H](CCCCNC(=O)CCn1cc[n+]2[c]1[Ir-3]13([c]4ccccc4-c4c5ccccc5cc[n+]41)([c]1ccccc1-c1c4ccccc4cc[n+]13)[n+]1ccccc1-2)C(=O)O)C(=O)O [III-h] |  | 336 (sh) (23695), 352 (sh) (22270), 378 (sh) (15520), 435 (9310) nm (M^−1 · cm^−1) | 628 nm | 3.0 | 215 | 8.3 |  | 52.4 µM | 19 µM |  | > 100 | 0.88 ± 0.02 | 8.3 | 6.3 | 52.4 µM | 19 | >5.3 | > 100
6 | F[P-](F)(F)(F)(F)F.O=C(O)CC[C@H](NC(=O)N[C@@H](CCCCNC(=O)CCn1cc[n+]2[c]1[Ir-3]13([c]4cccc5ccc6ccc[n+]1c6c45)([c]1cccc4ccc5ccc[n+]3c5c14)[n+]1ccccc1-2)C(=O)O)C(=O)O [III-i] | 0.60 ± 0.01 | 317 (19830), 412 (5510) nm (M^−1 · cm^−1) | 548 nm |  | 227 |  |  | 250 µM |  |  | > 100 |  | 40.6 | 6.2 | 250 µM | 55.8 | >1.8 | > 100
7 | F[P-](F)(F)(F)(F)F.O=C(O)CC[C@H](NC(=O)N[C@@H](CCCCNC(=O)CCn1cc[n+]2[c]1[Ir-3]13([c]4c(sc5ccccc45)-c4cccc[n+]41)([c]1c(sc4ccccc14)-c1cccc[n+]13)[n+]1ccccc1-2)C(=O)O)C(=O)O [III-j] | −0.38 ± 0.03 | 324 (26900), 343 (sh)^b (24560), 428 (10800) nm (M^−1 · cm^−1) |  | 3.0 | 197 | 12.5 |  |  | 10.8 µM |  | > 100 |  | 12.5 | >20 | > 250 µM | 10.8 | >9.3 | > 100
8 | F[P-](F)(F)(F)(F)F.O=C(O)CC[C@H](NC(=O)N[C@@H](CCCCNC(=O)CCn1cc[n+]2[c]1[Ir-3]13([c]4ccccc4-c4sc5ccccc5[n+]41)([c]1ccccc1-c1sc4ccccc4[n+]13)[n+]1ccccc1-2)C(=O)O)C(=O)O [III-k] | −0.14 ± 0.01 | 321 (39070), 370 (sh) (12560), 406 (10170) nm (M^−1 · cm^−1) |  | 6.1 | 649 | 33.8 |  | 95.1 µM | 30 µM |  | > 100 |  | 33.8 | 2.8 | 95.1 µM | 30 | >3.3 | > 100
9 | F[P-](F)(F)(F)(F)F.O=C(NCCCn1cc[n+]2[c]1[Ir-3]13([c]4ccccc4-c4c5ccccc5cc[n+]41)([c]1ccccc1-c1c4ccccc4cc[n+]13)[n+]1ccccc1-2)[c-]1cccc1.[Fe+2].c1cc[cH-]c1 [IV-h] | 0.81 ± 0.07 | 334 (sh) (19440), 351 (sh) (18355), 380 (12745), 435 (7870) nm (M^−1 · cm^−1) |  | 0.07 | 178 |  |  |  |  |  |  |  |  | 3.8 | 17.1 µM | 4.4 | 3.0 | 
10 | F[P-](F)(F)(F)(F)F.O=C(NCCCn1cc[n+]2[c]1[Ir-3]13([c]4cccc5ccc6ccc[n+]1c6c45)([c]1cccc4ccc5ccc[n+]3c5c14)[n+]1ccccc1-2)[c-]1cccc1.[Fe+2].c1cc[cH-]c1 [IV-i] |  | 318 (25600), 413 (7410) nm (M^−1 · cm^−1) |  | 0.02 | 205 |  |  |  |  |  |  | 0.74 ± 0.02 | 10 | 1.0 | 10 µM | 17.8 | 2.3 | 
11 | F[P-](F)(F)(F)(F)F.O=C(NCCCn1cc[n+]2[c]1[Ir-3]13([c]4c(sc5ccccc45)-c4cccc[n+]41)([c]1c(sc4ccccc14)-c1cccc[n+]13)[n+]1ccccc1-2)[c-]1cccc1.[Fe+2].c1cc[cH-]c1 [IV-j] | 1.07 ± 0.07 | 322 (15400), 342 (sh) (14040), 434 (6150) nm (M^−1 · cm^−1) |  | 0.01 | 196 |  |  |  |  |  |  |  | 3.9 | 4.2 |  | 14 | 4.5 | 62.8
12 | F[P-](F)(F)(F)(F)F.O=C(NCCCn1cc[n+]2[c]1[Ir-3]13([c]4ccccc4-c4sc5ccccc5[n+]41)([c]1ccccc1-c1sc4ccccc4[n+]13)[n+]1ccccc1-2)[c-]1cccc1.[Fe+2].c1cc[cH-]c1 [IV-k] |  | 321 (24910), 371 (sh) (7200), 407 (5940) nm (M^−1 · cm^−1) |  | 0.08 | 212 |  |  |  |  |  |  | 0.74 ± 0.05 | 5.1 | 2.3 | 10.2 µM and 11.6 µM | 11.6 | 1.6 | 18.7
